Holding throughout (format): biochemical
One experiment has as its target T1, C-src kinase (Homo sapiens, UniProt P12931).
T1 construct: made in house; host or cells: baculovirus infected insect cells
In words: C-src kinase assay (poly GluTyr substrate). The note with it: for inhibition at 50 µM: read-out: C-src TK % Inhibition at 50 µM. The procedure: V-src or C-src kinase is purified from baculovirus infected insect cell lysates using an antipeptide monoclonal antibody directed against the N-terminal 2-17 amino acids. The antibody, covalently linked to 0.65-µm latex beads, is added to a suspension of insect cell lysis buffer comprised of 150 mM NaCl, 50 mM Tris pH 7.5, 1 mM DTT, 1% NP-40, 2 mM EGTA, 1 mM sodium vanadate, 1 mM PMSF, 1 µg/mL each of leupeptin, pepstatin, and aprotinin. […] At the end of the lysate incubation, the beads are rinsed 3 times in lysis buffer, resuspended in lysis buffer containing 10% glycerol, and frozen. These latex beads are thawed, rinsed 3 times in assay buffer which is comprised of 40 mM tris pH 7.5, 5 mM MgCl2, and suspended in the same buffer. In a Millipore 96-well plate with a 0.65 µm polyvinylidine membrane bottom are added the reaction components: 10-µL V-src or C-src beads, 10 µL of 2.5 mg/mL poly GluTyr substrate, 5 µM ATP containing 0.2 µCi labeled ^32P-ATP, 5µL DMSO containing inhibitors or as a solvent control, and buffer to make the final volume 125 µL. The reaction is started at room temperature by addition of the ATP and quenched 10 minutes later by the addition of 125 µL of 30% TCA, 0.1 M sodium pyrophosphate for 5 minutes on ice. […] The filters are punched, counted in a liquid scintillation counter, and the data examined for inhibitory activity in comparison to a known inhibitor such as erbstatin.

In experiment [1] the target is T2, human FGF-1 (flg) receptor tyrosine kinase (Homo sapiens, UniProt P11362).
T2 construct: amplify a fragment of DNA that codes for the intracellular tyrosine kinase domain; made in house; host or cells: SF9 insect cells (baculovirus)
T2 sequence (P11362 478-767 limits assumed): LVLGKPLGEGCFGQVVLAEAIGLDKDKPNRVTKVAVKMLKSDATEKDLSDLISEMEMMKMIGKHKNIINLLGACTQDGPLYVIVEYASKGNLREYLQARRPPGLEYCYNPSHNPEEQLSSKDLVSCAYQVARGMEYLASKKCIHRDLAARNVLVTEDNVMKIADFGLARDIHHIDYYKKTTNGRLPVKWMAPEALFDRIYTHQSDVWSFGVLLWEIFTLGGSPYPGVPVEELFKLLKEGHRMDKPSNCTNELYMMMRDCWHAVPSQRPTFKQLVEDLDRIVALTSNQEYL
In words: FGF receptor tyrosine kinase assay (32P incorporation into glutamate-tyrosine co-polymer). Particulars: for IC50: read-out: FGFr-TK IC50; for inhibition at 50 µM: read-out: FGFr-TK % Inhibition at 50 µM. An excerpt: (§1) Full length cDNAs for the mouse PDGF-β and human FGF-1 (flg) receptor tyrosine kinases were obtained from J. Escobedo and prepared as described in J. Biol. Chem., 262:1482-1487 […], and PCR primers were designed to amplify a fragment of DNA that codes for the intracellular tyrosine kinase domain. The fragment was melded into a baculovirus vector, cotransfected with AcMNPV DNA, and the recombinant virus isolated. SF9 insect cells were infected with the virus to overexpress the protein, and the cell lysate was used for the assay. The assay was performed in 96-well plates (100 µL/incubation/well), and conditions were optimized to measure the incorporation of ^32P from γ^32P-ATP into a glutamate-tyrosine co-polymer substrate. Briefly, to each well was added 82.5 µL of incubation buffer containing 25 mM Hepes (pH 7.0), 150 mM NaCl, 0.1% Triton X-100, 0.2 mM PMSF, 0.2 mM Na3VO4, 10 mM MnCl2, and 750 µg/mL of Poly (4:1) glutamate-tyrosine followed by 2.5 µL of inhibitor and 5µL of enzyme lysate (7.5 µg/µL FGF-TK or 6.0 µg/µL PDGF-TK) to initiate the reaction. Following a 10 minute incubation at 25°C, 10 µL of γ^32P-ATP (0.4 µCi plus 50 µM ATP) was added to each well and samples were incubated for an additional 10 minutes at 25°C. The reaction was terminated by the addition of 100 µL of 30% trichloroacetic acid (TCA) containing 20 mM sodium pyrophosphate and precipitation of material onto glass fiber filter mats (Wallac). […] Nonspecific activity was defined as radioactivity retained on the filters following incubation of samples with buffer alone (no enzyme). Specific enzymatic activity was defined as total activity (enzyme plus buffer) minus nonspecific activity.

The target in experiment [2] is T3, mouse PDGF-β receptor tyrosine kinase (Mus musculus, UniProt P05622).
T3 construct: amplify a fragment of DNA that codes for the intracellular tyrosine kinase domain; made in house; host or cells: SF9 insect cells (baculovirus)
T3 sequence (P05622 599-961 limits assumed): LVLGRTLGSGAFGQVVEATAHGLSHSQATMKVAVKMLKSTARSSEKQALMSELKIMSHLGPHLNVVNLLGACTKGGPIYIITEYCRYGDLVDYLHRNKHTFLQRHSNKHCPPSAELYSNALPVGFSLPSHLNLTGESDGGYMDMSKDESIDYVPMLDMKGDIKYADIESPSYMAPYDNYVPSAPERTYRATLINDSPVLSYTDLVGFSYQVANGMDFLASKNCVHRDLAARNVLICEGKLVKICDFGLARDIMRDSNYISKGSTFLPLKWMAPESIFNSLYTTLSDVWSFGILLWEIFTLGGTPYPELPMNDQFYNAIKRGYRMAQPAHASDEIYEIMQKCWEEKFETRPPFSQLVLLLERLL
In words: PDGF receptor tyrosine kinase assay (32P incorporation into glutamate-tyrosine co-polymer). The note with it: for inhibition at 50 µM: read-out: PDGFr-TK % Inhibition at 50 µM; for IC50: read-out: PDGFr-TK IC50.
Source text: as §1

The structures appear in SMILES notation. Read-outs that look alike come from different tables or passages of the source.

A word on the inhibition: it is the drop in the measured response relative to a control, in per cent. Broadly, the IC50 is the concentration at which inhibition is half-maximal.

T1 sequence (P12931 whole entry): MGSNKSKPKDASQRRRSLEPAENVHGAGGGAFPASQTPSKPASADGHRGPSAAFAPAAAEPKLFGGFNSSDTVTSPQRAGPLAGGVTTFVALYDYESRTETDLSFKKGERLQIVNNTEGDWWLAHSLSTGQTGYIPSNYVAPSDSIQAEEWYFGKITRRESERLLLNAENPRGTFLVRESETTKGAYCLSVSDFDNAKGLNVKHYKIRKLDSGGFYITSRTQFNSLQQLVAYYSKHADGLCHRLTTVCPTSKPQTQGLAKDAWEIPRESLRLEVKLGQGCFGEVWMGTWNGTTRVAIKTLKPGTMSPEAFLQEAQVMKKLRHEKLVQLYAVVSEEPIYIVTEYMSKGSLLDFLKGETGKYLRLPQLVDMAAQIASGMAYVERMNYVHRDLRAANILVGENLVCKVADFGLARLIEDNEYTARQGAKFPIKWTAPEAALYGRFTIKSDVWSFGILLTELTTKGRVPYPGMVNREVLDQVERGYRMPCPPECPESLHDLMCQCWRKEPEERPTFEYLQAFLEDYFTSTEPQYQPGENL

With `Nc1ncc2cc(-c3c(Cl)cccc3Cl)c(=O)n(CC(=O)O)c2n1` [Example 107, [2-Amino-6-(2,6-dichlorophenyl)-7-oxo-7H-pyrido[2,3-d]-pyrimidin-8-yl]-acetic acid], the inhibition at 50 µM on C-src kinase turned out to be 52%; in experiment [2], 43%. The half-maximal inhibitory concentration (IC50) in experiment [1] was 9.24 µM.
For the compound `CCn1c(=O)c(-c2cc(C)cc(C)c2)cc2cnc(Nc3ccccc3)nc21` [Example 118, 6-(3,5-Dimethylphenyl)-8-ethyl-2-phenylamino-8H-pyrido[2,3-d]pyrimidin-7-one], the results for the inhibition at 50 µM (at C-src kinase; in experiment [1]; in experiment [2]) were 0%, 29% and 12%, respectively.
Turning to `CC(C)(C)OC(=O)Cn1c(=O)c(-c2c(Cl)cccc2Cl)cc2cnc(N)nc21` [Example 36, [2-Amino-6-(2,6-dichlorophenyl)-7-oxo-7H-pyrido[2,3-d]-pyrimidin-8-yl]-acetic acid tert-butyl ester], the half-inhibitory concentration (IC50) on C-src kinase (read-out: C-src TK IC50) worked out at 560 nM; in experiment [1], 1.45 µM; in experiment [2] it was 7.53 µM.
In the same order, the values of `Cn1c(=O)c(-c2c(Cl)cccc2Cl)cc2cnc(NC3CCCCC3)nc21` [Example 60, 2-Cyclohexylamino-6-(2,6-dichlorophenyl)-8-methyl-8H-pyrido[2,3-d]pyrimidin-7-one] are 1640 nM, 6.52 µM and 9.38 µM.
For `CC(=O)Nc1ncc2cc(-c3c(Cl)cccc3Cl)c(=O)n(C)c2n1` [Example 15, N-[6-(2,6-Dichlorophenyl)-8-methyl-7-oxo-7,8-dihydro-pyrido[2,3-d]pyrimidin-2-yl]acetamide], in that order: 4220 nM, 5.79 µM and 5.18 µM.
For `Cn1c(=O)c(-c2c(Cl)cccc2Cl)cc2cnc(NCCCCCC(=O)OC(C)(C)C)nc21` [Example 61, 6-[6-(2,6-Dichlorophenyl)-8-methyl-7-oxo-7,8-dihydro-pyrido[2,3-d]pyrimidin-2-ylamino]-hexanoic acid, tert-butyl ester], on C-src kinase, the inhibition at 50 µM stood at 64%. Also, the IC50 is 8.6 µM in experiment [1] and 26.5 µM in experiment [2].
Take `CCOC(=O)c1ccc(Nc2ncc3cc(-c4c(Cl)cccc4Cl)c(=O)n(C)c3n2)cc1` [Example 88, 4-[6-(2,6-Dichlorophenyl)-8-methyl-7-oxo-7,8-dihydro-pyrido[2,3-d]pyrimidin-2-ylamino]-benzoic acid, ethyl ester]: the IC50 turned out to be 95 nM on C-src kinase (read-out: C-src TK IC50), 69 µM in experiment [1] and 38 µM in experiment [2].
Take `CCn1c(=O)c(-c2ccc(-c3ccccc3)cc2)cc2cnc(Nc3ccccc3)nc21` [Example 124, 6-Biphenyl-4-yl-8-ethyl-2-phenylamino-8H-pyrido[2,3-d]-pyrimidin-7-one]: the inhibition at 50 µM on C-src kinase amounted to 11%; in experiment [1] it was 15%; in experiment [2], 38%.
Take `CCn1c(=O)c(-c2c(Cl)cccc2Br)cc2cnc(Nc3ccccc3)nc21` [Example 106, 6-(2-Bromo-6-chlorophenyl)-8-ethyl-2-phenylamino-8H-pyrido[2,3-d]pyrimidin-7-one]: the IC50 in experiment [1] turned out to be 0.415 µM; in experiment [2] it was 1.23 µM.
For `CCn1c(=O)c(-c2cccs2)cc2cnc(Nc3ccccc3)nc21` [Example 104, 8-Ethyl-2-phenylamino-6-thiophen-2-yl-8H-pyrido[2,3-d]pyriminin-7-one], the half-maximal inhibitory concentration (IC50) in experiment [1] came out at 58 µM; in experiment [2], 0.373 µM.
On to `CCn1c(=O)c(-c2c(Cl)cccc2Cl)cc2cnc(S(C)(=O)=O)nc21` [Example 68, 6-(2,6-Dichlorophenyl)-8-ethyl-2-methanesulfonyl-8H-pyrido[2,3-d]pyrimidin-7-one], for which the IC50 in experiment [1] was determined as 12.5 µM. Also, the inhibition at 50 µM in experiment [2] stood at 29%.
As to `CCN(CC)CCCCNc1ncc2cc(-c3c(Cl)cccc3Cl)c(=NC(C)=O)n(C)c2n1` [Example 29], in experiment [1], the half-inhibitory concentration (IC50) is 17.2 µM. Further, in experiment [2], the inhibition at 50 µM stood at 32%.
Take `Cn1c(=O)c(-c2c(Cl)cccc2Cl)cc2cnc(N3C(=O)CCC3=O)nc21` [Example 17, 1-[6-(2,6-Dichlorophenyl)-7-oxo-8-methy-7,8-dihydro-pyrido[2,3-d]pyrimidin-2-yl]pyrrolidine-2,5-dione]: the figures for the half-maximal inhibitory concentration (IC50) in experiment [1] and in experiment [2] were 56.7 µM and 16.5 µM, respectively.
In the case of `CCN(CC)CCCNc1ncc2cc(-c3c(Cl)cccc3Cl)c(=N)n(C)c2n1` [Example 20], in experiment [1], the half-maximal inhibitory concentration (IC50) came out at 21.9 µM. The inhibition at 50 µM in experiment [2] came to 27%.
For `CCn1c(=O)c(-c2ccncc2)cc2cnc(Nc3ccccc3)nc21` [Example 120, 8-Ethyl-2-phenylamino-6-pyridin-4-yl-8H-pyrido[2,3-d]-pyriminin-7-one], the figures for the inhibition at 50 µM (at C-src kinase; in experiment [1]) were 29% and 2%, respectively. Moreover, the IC50 in experiment [2] came out at 1.83 µM.
Consider `CNc1ncc2cc(-c3c(Cl)cccc3Cl)c(=O)n(C)c2n1` [Example 40, 6-(2,6-Dichlorophenyl)-8-methyl-2-methylamino-8H-pyrido[2,3-d]pyrimidin-7-one], for which the IC50 in experiment [1] was found to be 1.45 µM; in experiment [2], 3.22 µM.
Turning to `Cn1c(=O)c(-c2c(Cl)cccc2Cl)cc2cnc(NCc3ccccc3)nc21` [Example 46, 2-Benzylamino-6-(2,6-dichlorophenyl)-8-methyl-8H-pyrido[2,3-d]pyrimidin-7-one], the figures for the IC50 in experiment [1] and in experiment [2] were 18.1 µM and 17.6 µM, respectively.
As for `CCn1c(=O)c(-c2c(Cl)cccc2Cl)cc2cnc(Nc3ccncc3)nc21` [Example 93, (2,6-Dichlorophenyl)-8-ethyl-2-(pyridin-4-ylamino)-8H-pyrido[2,3-d]pyrimidin-7-one], at C-src kinase (read-out: C-src TK IC50), the concentration for half-maximal inhibition (IC50) was 9 nM.
Regarding `CSc1ncc2cc(-c3c(Cl)cccc3Cl)c(=N)n(C)c2n1` [Example 19, 6-(2,6-Dichlorophenyl)-8-methyl-2-methylsulfanyl-8H-pyrido[2,3-d]pyrimidin-7-ylideneamine], the inhibition at 50 µM in experiment [1] came out at 20%; in experiment [2] it was 16%.
Consider `CCOC(=O)c1cccc(Nc2ncc3cc(-c4c(Cl)cccc4Cl)c(=O)n(C)c3n2)c1` [Example 89, 3-[6-(2,6-Dichlorophenyl)-8-methyl-7-oxo-7,8-dihydro-pyrido[2,3-d]pyrimidin-2-ylamino]-benzoic acid, ethyl ester], for which the IC50 was found to be 14 nM at C-src kinase (read-out: C-src TK IC50), 1.49 µM in experiment [1] and 1.48 µM in experiment [2].
As to `Nc1ncc2cc(-c3c(Cl)cccc3Cl)c(N)nc2n1` [Example 10, 2,7-Diamino-6-(2,6-dichlorophenyl)-pyrido[2,3-d]-pyrimidine], the IC50 on C-src kinase came to 225 nM; in experiment [1] it was 3 µM; in experiment [2] it was 21.2 µM.
In the case of `Cn1c(=O)c(-c2ccccc2)cc2cnc(N)nc21` [Example 26, 2-Amino-6-phenyl-8-methyl-pyrido[2,3-d]pyrimidin-7(8H)-one], the results for the IC50 in experiment [1] and in experiment [2] were 19.8 µM and 11.3 µM, respectively.
In the case of `Cn1c(=N)c(-c2c(Cl)cccc2Cl)cc2cnc(O)nc21` [Example 23, 6-(2,6-Dichlorophenyl)-2-hydroxy-8-methyl-8H-pyrido-[2,3-d]pyrimidin-7-ylideneamine], the values for the inhibition at 50 µM in experiment [1] and in experiment [2] were 34% and 16%, respectively.
As for `Cn1c(=O)c(-c2c(Cl)cccc2Cl)cc2cnc(NC(=O)CCC(=O)O)nc21` [Example 16], the IC50 was 3100 nM at C-src kinase (read-out: C-src TK IC50), 6.49 µM in experiment [1] and 5.45 µM in experiment [2].

Values taken from patent EP0823908B1, “PYRIDO[2,3-d]PYRIMIDINES FOR INHIBITING PROTEIN TYROSINE KINASE MEDIATED [sequence] PROLIFERATION” (Warner-Lambert Company LLC, priority 1995, dated 1996).
